Source: PMC3664642, “A Peptide against Soluble Guanylyl Cyclase α1: A New Approach to Treating Prostate Cancer” (PLoS ONE, 2013)
Entries after “also recorded” stand apart in the source; their conditions may differ.

Assays:
tumor cell = settings: ref [16], [17]; cited from earlier work
From the text: In view of the rapid cytotoxicity induced by Peptide A (data not shown), we examined the possibility that ROS was involved.

LNCaP cells [1] = assay: Dependence of cytotoxicity on NO signaling, LNCaP cells (MTT); assay type: cell-based; settings: for effect of C-PTIO on cytotoxicity of Peptide A-8R: Fig. S1D
Description: (§1) For proliferation, cells were grown in medium containing 2% FBS extracted with dextran-coated charcoal (DCC). 48 hours later, ethanol or 1 nM R1881 was added to the cells followed by peptide treatment. The MTT assay (Sigma) was used as before to determine cell number. For apoptosis, 5000 cells were seeded in 96-well plates and treated with Vehicle (DMSO), Peptide A-8R (25 µM), Etoposide (50 µM) (Sigma) at different time points. The Caspase (3/7) activity was measured using Apo-ONE Homogeneous Caspase-3/7 assay kit (Promega). PARP cleavage was also used to measure apoptosis, and is described below.
(§2) (A) Whole-cell extracts from LNCaP cells treated with Vehicle, Peptide A-8R, or C-8R were subjected to IP using an anti-sGCα1 or anti-sGCβ1 antibody and then probed by Western blotting for sGCα1 (Upper) or sGCβ1 (Lower). Input represents amount of sGCα1 or sGCβ1 found in extracts. (B) LNCaP cells grown in the absence or presence of 1 nM R1881 were treated with Vehicle, 20 µM Peptide A-8R, 20 µM C-8R, or 8-Br-cGMP and monitored for cGMP levels using the cGMP E1A kit (Enzo Life Sciences). (C) LNCaP cells grown in the absence or presence of 8-Br-cGMP were treated with Vehicle, Peptide A-8R, or ODQ and monitored for cell density using the MTT assay. (D) LNCaP cells were treated with Vehicle or different concentrations of Peptide A-8R and C-PTIO and monitored for cell density. Bar graphs represent averages of three independent experiments plus standard deviations. Asterisks indicate statistical significance (P<0.04). (TIF) Click here for additional data file.

C81 cells [2] = assay: NAC rescue of proliferation of Peptide A-8R-treated cells (MTT); assay type: cell-based; settings: for NAC rescue of proliferation: C81, NAC 1 or 5 mM, 2 h pretreatment, 0–6 days
Description: as §1
Intracellular ROS levels were evaluated using the fluorescent probe 5-(and-6)-chloromethyl-2′,7′-dichlorodihydrofluorescein diacetate (CM-H2DCFDA) (Invitrogen). After treatments with Peptide A-8R, C81 cells were loaded with 20 µM CM-H2DCFDA and incubated at 37°C for 30 min in the dark. Cells were then washed with PBS and fluorescence was measured at the excitation and emission wavelengths of 490 and 535 nm, respectively, using a multi-well fluorescence plate reader. For NAC (N-acetyl cysteine) (Sigma) rescue experiment, cells were pretreated with 1 or 5 mM NAC for 2 hours before adding Peptide A-8R.
(§3) Figure 4 Peptide A-8R kills prostate cancer cells by mediating ROS generation. (A) C81 cells were treated with Vehicle or different µMolar concentrations of Peptide A-8R and without or with 0–5 mM NAC and monitored for ROS generation after 0–30 min as measured by fluorescence intensity (FI). Bar graphs represent averages of three independent experiments plus standard deviations. Note that asterisks on bar graphs found with NAC are compared to equivalent data without NAC. (B) C81 cells were treated with Vehicle or different concentrations of Peptide A-8R, as shown, and 0–5 mM NAC, as shown, and monitored for cell number after 0–6 days of incubation as measured by MTT assay. Data points represent averages of three independent experiments plus standard deviations. Asterisks indicate statistical significance (P<0.04). (C) C81 cells were treated with Vehicle or different concentrations of Peptide A-8R, as shown, and with or without 5 mM NAC, as shown, and monitored DNA damage after 1 hr incubation as measured by Comet assay.

DNA damage in C81 cells = assay: Comet assay (DNA damage); assay type: cell-based; settings: 5 mM NAC, 2-hour pretreatment; Fig. 4C
Description: C81 cells were treated with Peptide A-8R for 1 hour, following a 2-hour pretreatment with 5 mM NAC or Vehicle, and trypsinized, and mixed with Comet LM-Agarose (CometAssay, […]) and transferred to slides. Electrophoresis and Sybr-Green staining was carried out according to manufacturer’s protocol.
as §3

C81 cells [3] = assay: DAPI DNA staining, C81 cells; assay type: cell-based; settings: 5 mM NAC, 2 hrs, Fig. S6
Description: C81 cells were first treated with or without 5 mM NAC for 2 hrs and then Vehicle or different concentrations of Peptide A-8R, as shown, for 1 hr and stained with DAPI. Phase contrast images are shown. (TIF) Click here for additional data file.

sGC = assay: cGMP levels in LNCaP cells (ELISA); assay type: cell-based; settings: 1 nM R1881 absent or present, 20 µM peptide, cGMP EIA kit, Fig. S1B
Description: as §2

[4] = test system: Caspase 3/7 activity in LNCaP cells; assay: Caspase 3/7 assay, LNCaP cells; assay type: cell-based; settings: Peptide 10 µM, Etoposide 20 µM, 24 hrs, Fig. 5A
Description: as §1
Figure 5 Peptide A-8R induces apoptosis of prostate cancer cells. (A) LNCaP, (B) PC-3, or (C) Cos cells were treated with Vehicle, Peptide A-8R (10 µM), or Etoposide (20 µM) for 0–24 hrs and subjected to a Caspase assay to measure apoptosis. Bar graphs represent averages of three independent experiments plus standard deviations. All activities are relative to the first condition, and this activity was set to 1. Asterisks indicate statistical significance (P<0.005). (D) LNCaP cells were treated with Vehicle, Peptide C-8R, Peptide A-8R, or Etoposide (each drug at 50 µM) for 8 hrs and monitored for apoptosis by measuring PARP cleavage using Western blotting. Note that β-actin was used to control for protein loading.
Supplementary file pone.0064189.s005.tif: Figure S5 ROS generation is not induced by Peptide A-8R in PC-3 cells and Peptide C-8R in LNCaP cells. (A) PC-3 cells were treated with Vehicle or different concentrations of Peptide A-8R or Peptide C-8R, as shown, or (B) LNCaP cells were treated with Vehicle or different concentrations of Peptide A-8R or Peptide C-8R, or H2O2 and monitored for ROS generation after 0–30 (A) or 30 (B) min. (C) LNCaP cells were treated with Vehicle, Peptide C-8R (10 µM), Peptide A-8R (10 µM), or Etoposide (100 µM) for 0–8 hrs and subjected to a Caspase assay to measure apoptosis. Bar graphs represent averages of three independent experiments plus standard deviations. (C) All activities are relative to the first condition, and this activity was set to either 1. Asterisks indicate statistical significance (P<0.006) of all values compared to Vehicle (B) or to 0 hour (C). (TIF) Click here for additional data file.

LNCaP cells [5] = assay: Proliferation/cytotoxicity, LNCaP cells (MTT); assay type: cell-based; settings: PI3K-AKT inhibitor; MTT; Fig. S3A; averages of three independent experiments
Description: LNCaP, C81, PC-3 and Cos cells were grown as previously described. CWR-22Rv1 cells were cultured in RMPI-1640 medium with 10% FBS and 50 µg/ml Gentamicin (Gibco). Control siRNA, sGCα1 siRNA and AKT siRNA (Dharmacon) at 50 nM final concentration was transfected into cells using Lipofectamine siMAX (Invitrogen).
as §1
(A) Four peptides were designed targeting sGCα1, with each peptide containing eight arginines at the C-terminus for membrane translocation. (B) LNCaP cells were grown in 10% serum under different concentrations of the four peptides, as shown. Cell number was measured after 0–4 days of incubation. Data points represent averages of three independent experiments plus standard deviations. Asterisks indicate statistical significance (P<0.0002) of Peptide A activity, relative to Vehicle.
Figure 2 Peptide A-8R interacts with sGCα1 in prostate cancer cells. (A) LNCaP cells were treated with 25 µM Biotin-labeled Peptide A-8R for 2 hrs and subjected to immunocytochemistry using anti-sGCα1 or anti-Biotin antibody to measure subcellular co-localization of endogenous sGCα1 and Peptide A-8R. DAPI was used to stain nuclei. (B) LNCaP cytosolic extracts were incubated with Peptide A-8R-Biotin and subjected to purification using streptavidin-agarose. This pull-down experiment was repeated with competing excess amount of unlabeled Peptide C-8R or Peptide A-8R. […] Co-purified Peptide A-8R-FITC was quantified by measuring fluorescence signal emission. […] Cell number was measured after 0–48 hrs of incubation. […]

SMILES: N.N.[Cl][Pt][Cl] [cisplatin]
- tumor cell death by elevating ROS (tumor cell): induce tumor cell death by elevating levels of reactive oxygen species

SMILES: Nc1nc2c(nc(Br)n2[C@@H]2O[C@@H]3COP(=O)(O)O[C@H]3[C@H]2O)c(=O)[nH]1 [Peptide 8-Br-cGMP]
- effect of added agent on Vehicle- or Peptide A-8R-treated cells (cell density) (LNCaP cells [1]; MTT, Fig. S1C): had no effect on Vehicle- or Peptide A-8R-treated cells
- rescue of ODQ-treated cells (cell density) (LNCaP cells [1]; MTT, ODQ-treated, Fig. S1C): able to partially rescue cells treated with the sGC enzyme inhibitor ODQ

SMILES: CC1(C)N([O])C(c2ccc(C(=O)O)cc2)=[N+]([O-])C1(C)C [C-PTIO]
- effect of C-PTIO on cytotoxicity of Peptide A-8R (LNCaP cells [1]; Peptide A-8R at 50 µM): interestingly not 50 µM
- effect of C-PTIO on cytotoxicity of Peptide A-8R (LNCaP cells [1]; Peptide A-8R at 10 and 25 µM, P<0.04): enhanced rather than relieved the cytotoxicity of Peptide A-8R at 10 and 25 µM

SMILES: COc1cccc2c1C(=O)c1c(O)c3c(c(O)c1C2=O)C[C@@](O)(C(=O)CO)C[C@@H]3O[C@H]1C[C@H](N)[C@H](O)[C@H](C)O1 [doxorubicin]
- tumor cell death by elevating ROS (tumor cell): induce tumor cell death by elevating levels of reactive oxygen species

SMILES: CC(=O)N[C@@H](CS)C(=O)O [NAC, N-acetyl cysteine]
- NAC rescue of proliferation (C81 cells [2]; 10 µM Peptide A-8R, Fig. 4B (P<0.04)): able to completely rescue the proliferation
- NAC rescue of proliferation (C81 cells [2]; 25 µM Peptide A-8R, Fig. 4B (P<0.04)): nearly completely
- NAC rescue of proliferation (C81 cells [2]; 50 µM Peptide A-8R, Fig. 4B): failed to significantly rescue the growth; also recorded: only marginally rescued
- NAC rescue (discussion) (C81 cells [2]; 10 and 25 µM Peptide A-8R): strong rescue
- inhibition of Peptide A-8R-induced DNA damage (DNA damage in C81 cells): completely blocked
- effect of NAC on cells treated with 50 µM Peptide A-8R (DAPI) (C81 cells [3]): had no effect

SMILES: C[C@]1(O)CC[C@H]2[C@@H]3CCC4=CC(=O)CCC4=C3C=C[C@@]21C [Peptide R1881, reference compound]
- cGMP levels (sGC): markedly elevated cGMP levels

SMILES: COc1cc([C@@H]2c3cc4c(cc3[C@@H](O[C@@H]3O[C@@H]5CO[C@@H](C)O[C@H]5[C@H](O)[C@H]3O)[C@H]3COC(=O)[C@H]23)OCO4)cc(OC)c1O [Etoposide, reference compound]
- Caspase 3/7 activity [4]: induced similar levels of Caspase activity as did Peptide A-8R, but only after 24 hrs of treatment

SMILES: O=c1cc(N2CCOCC2)oc2c(-c3ccccc3)cccc12 [LY294002, reference compound]
- LNCaP cell proliferation (LNCaP cells [5]): dramatically repressed LNCaP cell proliferation
